In publication PMC9954146, “Anti-Leukaemic Activity of Rilpivirine Is Mediated by Aurora A Kinase Inhibition” (Cancers, 2023):

Experiments:
Experiment in all cases: Kinase panel
Format in all cases: biochemical
Settings in all cases: read-out: % Residual Activity
ACTR2(h) = target: T1, ACTR2(h) (Homo sapiens, UniProt P27037)
T1 construct: purchased Eurofins (KinaseProfiler)
Procedure: (§1) Kinome-wide selectivity of rilpivirine was measured using the kinase screening and profiling service of Eurofins Scientific (Le bois l’Evêque 86600. Celle-Lévescault, France) and Ki values were determined using radioisotope-based assays by Reaction Biology Corporation (Malvern, PA, USA). The experimental details of Eurofin Scientific and Reaction Biology services for relevant assays are available at https://www.eurofinsdiscoveryservices.com/services/in-Vitro-assays/kinases/kinase-profiler (accessed on 7 July 2021) and https://www.reactionbiology.com (accessed on 7 July 2021), respectively. Ki values were estimated from the corresponding IC50 values using the Cheng–Prusoff equation [21] and the Km (ATP) of individual kinase was used for IC50 determination.

CDK13/cyclinK(h) = target: T2, CDK13/cyclinK(h) (Homo sapiens, UniProt Q14004)
T2 construct: purchased Eurofins (KinaseProfiler)
Procedure: as §1

CDKL2(h) = target: T3, CDKL2(h) (Homo sapiens, UniProt Q92772)
T3 construct: purchased Eurofins (KinaseProfiler)
Procedure: as §1

CK1γ1(h) = target: T4, CK1γ1(h) (Homo sapiens, UniProt Q9HCP0)
T4 construct: purchased Eurofins (KinaseProfiler)
Procedure: as §1

ChaK1(h) = target: T5, ChaK1(h) (Homo sapiens, UniProt Q96QT4)
T5 construct: purchased Eurofins (KinaseProfiler)
Procedure: as §1

DMPK(h) = target: T6, DMPK(h) (Homo sapiens, UniProt Q09013)
T6 construct: purchased Eurofins (KinaseProfiler)
Procedure: as §1

DRAK2(h) = target: T7, DRAK2(h) (Homo sapiens, UniProt O94768)
T7 construct: purchased Eurofins (KinaseProfiler)
Procedure: as §1

FGFR3(h) = target: T8, FGFR3(h) (Homo sapiens, UniProt P22607)
T8 construct: purchased Eurofins (KinaseProfiler)
Procedure: as §1

Fer(h) = target: T9, Fer(h) (Homo sapiens, UniProt P16591)
T9 construct: purchased Eurofins (KinaseProfiler)
Procedure: as §1

GRK1(h) = target: T10, GRK1(h) (Homo sapiens, UniProt Q15835)
T10 construct: purchased Eurofins (KinaseProfiler)
Procedure: as §1

HIPK3(h) = target: T11, HIPK3(h) (Homo sapiens, UniProt Q9H422)
T11 construct: purchased Eurofins (KinaseProfiler)
Procedure: as §1

IKKα(h) = target: T12, IKKα(h) (Homo sapiens, UniProt O15111)
T12 construct: purchased Eurofins (KinaseProfiler)
T12 sequence (O15111 whole entry): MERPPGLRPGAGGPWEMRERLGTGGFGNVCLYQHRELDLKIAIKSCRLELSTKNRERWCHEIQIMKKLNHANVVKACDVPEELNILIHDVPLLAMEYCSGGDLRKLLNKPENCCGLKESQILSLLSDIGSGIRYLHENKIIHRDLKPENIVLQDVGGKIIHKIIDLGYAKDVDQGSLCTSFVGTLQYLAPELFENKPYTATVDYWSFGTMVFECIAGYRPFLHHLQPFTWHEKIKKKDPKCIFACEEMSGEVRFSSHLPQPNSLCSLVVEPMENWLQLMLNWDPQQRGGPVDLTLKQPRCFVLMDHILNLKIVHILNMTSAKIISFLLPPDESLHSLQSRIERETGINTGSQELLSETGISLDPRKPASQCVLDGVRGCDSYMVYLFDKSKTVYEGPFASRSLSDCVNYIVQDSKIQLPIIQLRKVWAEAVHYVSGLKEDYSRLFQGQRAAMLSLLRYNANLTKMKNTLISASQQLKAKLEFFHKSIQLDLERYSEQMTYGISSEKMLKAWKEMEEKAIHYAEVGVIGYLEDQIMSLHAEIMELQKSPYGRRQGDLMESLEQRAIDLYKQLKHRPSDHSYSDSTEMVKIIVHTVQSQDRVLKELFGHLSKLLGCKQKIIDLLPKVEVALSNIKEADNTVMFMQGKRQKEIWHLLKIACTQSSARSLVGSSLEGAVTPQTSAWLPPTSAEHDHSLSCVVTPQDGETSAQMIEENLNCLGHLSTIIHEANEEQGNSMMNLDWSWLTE
Procedure: as §1

IRAK4(h) = target: T13, IRAK4(h) (Homo sapiens, UniProt Q9NWZ3)
T13 construct: purchased Eurofins (KinaseProfiler)
Procedure: as §1

LATS1(h) = target: T14, LATS1(h) (Homo sapiens, UniProt O95835)
T14 construct: purchased Eurofins (KinaseProfiler)
Procedure: as §1

MAP4K5(h) = target: T15, MAP4K5(h) (Homo sapiens, UniProt Q9Y4K4)
T15 construct: purchased Eurofins (KinaseProfiler)
Procedure: as §1

MKK6(h) = target: T16, MKK6(h) (Homo sapiens, UniProt P52564)
T16 construct: purchased Eurofins (KinaseProfiler)
Procedure: as §1

MOK(h) = target: T17, MOK(h) (Homo sapiens, UniProt Q9UQ07)
T17 construct: purchased Eurofins (KinaseProfiler)
Procedure: as §1

MRCKβ(h) = target: T18, MRCKβ(h) (Homo sapiens, UniProt Q9Y5S2)
T18 construct: purchased Eurofins (KinaseProfiler)
Procedure: as §1

MST3(h) = target: T19, MST3(h) (Homo sapiens, UniProt Q9Y6E0)
T19 construct: purchased Eurofins (KinaseProfiler)
T19 sequence (Q9Y6E0 whole entry): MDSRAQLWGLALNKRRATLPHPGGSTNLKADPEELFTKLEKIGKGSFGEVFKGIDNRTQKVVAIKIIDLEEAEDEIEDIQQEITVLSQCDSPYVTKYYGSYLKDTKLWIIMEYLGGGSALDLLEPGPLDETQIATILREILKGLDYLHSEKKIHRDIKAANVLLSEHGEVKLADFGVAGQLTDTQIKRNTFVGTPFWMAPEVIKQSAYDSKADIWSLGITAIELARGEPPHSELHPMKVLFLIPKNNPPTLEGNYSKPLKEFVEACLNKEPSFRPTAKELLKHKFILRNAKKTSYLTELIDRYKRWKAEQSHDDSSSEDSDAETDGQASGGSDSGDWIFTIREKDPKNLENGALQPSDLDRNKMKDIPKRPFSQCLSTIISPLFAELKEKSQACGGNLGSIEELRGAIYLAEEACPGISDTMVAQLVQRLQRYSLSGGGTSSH
Procedure: as §1

NEK3(h) = target: T20, NEK3(h) (Homo sapiens, UniProt P51956)
T20 construct: purchased Eurofins (KinaseProfiler)
Procedure: as §1

NUAK2(h) = target: T21, NUAK2(h) (Homo sapiens, UniProt Q9H093)
T21 construct: purchased Eurofins (KinaseProfiler)
Procedure: as §1

PDHK4(h) = target: T22, PDHK4(h) (Homo sapiens, UniProt Q16654)
T22 construct: purchased Eurofins (KinaseProfiler)
Procedure: as §1

PDK1(h) = target: T23, PDK1(h) (Homo sapiens, UniProt O15530)
T23 construct: purchased Eurofins (KinaseProfiler)
Procedure: as §1

PI3KC2g(h) = PI3KC2g(h) (Homo sapiens, UniProt O75747)
Procedure: as §1

PIP4K2a(h) = PIP4K2a(h) (Homo sapiens, UniProt P48426)
Procedure: as §1

PKBβ(h) = target: T24, PKBβ(h) (Homo sapiens, UniProt P31751)
T24 construct: purchased Eurofins (KinaseProfiler)
Procedure: as §1

Plk4(h) = target: T25, Plk4(h) (Homo sapiens, UniProt O00444)
T25 construct: purchased Eurofins (KinaseProfiler)
Procedure: as §1

Ret (V804L)(h) = target: T26, Ret (V804L)(h) (Homo sapiens, UniProt P07949, V804L)
T26 construct: purchased Eurofins (KinaseProfiler)
Procedure: as §1

Ron(h) = target: T27, Ron(h) (Homo sapiens, UniProt Q04912)
T27 construct: purchased Eurofins (KinaseProfiler)
T27 sequence (Q04912 25-1400): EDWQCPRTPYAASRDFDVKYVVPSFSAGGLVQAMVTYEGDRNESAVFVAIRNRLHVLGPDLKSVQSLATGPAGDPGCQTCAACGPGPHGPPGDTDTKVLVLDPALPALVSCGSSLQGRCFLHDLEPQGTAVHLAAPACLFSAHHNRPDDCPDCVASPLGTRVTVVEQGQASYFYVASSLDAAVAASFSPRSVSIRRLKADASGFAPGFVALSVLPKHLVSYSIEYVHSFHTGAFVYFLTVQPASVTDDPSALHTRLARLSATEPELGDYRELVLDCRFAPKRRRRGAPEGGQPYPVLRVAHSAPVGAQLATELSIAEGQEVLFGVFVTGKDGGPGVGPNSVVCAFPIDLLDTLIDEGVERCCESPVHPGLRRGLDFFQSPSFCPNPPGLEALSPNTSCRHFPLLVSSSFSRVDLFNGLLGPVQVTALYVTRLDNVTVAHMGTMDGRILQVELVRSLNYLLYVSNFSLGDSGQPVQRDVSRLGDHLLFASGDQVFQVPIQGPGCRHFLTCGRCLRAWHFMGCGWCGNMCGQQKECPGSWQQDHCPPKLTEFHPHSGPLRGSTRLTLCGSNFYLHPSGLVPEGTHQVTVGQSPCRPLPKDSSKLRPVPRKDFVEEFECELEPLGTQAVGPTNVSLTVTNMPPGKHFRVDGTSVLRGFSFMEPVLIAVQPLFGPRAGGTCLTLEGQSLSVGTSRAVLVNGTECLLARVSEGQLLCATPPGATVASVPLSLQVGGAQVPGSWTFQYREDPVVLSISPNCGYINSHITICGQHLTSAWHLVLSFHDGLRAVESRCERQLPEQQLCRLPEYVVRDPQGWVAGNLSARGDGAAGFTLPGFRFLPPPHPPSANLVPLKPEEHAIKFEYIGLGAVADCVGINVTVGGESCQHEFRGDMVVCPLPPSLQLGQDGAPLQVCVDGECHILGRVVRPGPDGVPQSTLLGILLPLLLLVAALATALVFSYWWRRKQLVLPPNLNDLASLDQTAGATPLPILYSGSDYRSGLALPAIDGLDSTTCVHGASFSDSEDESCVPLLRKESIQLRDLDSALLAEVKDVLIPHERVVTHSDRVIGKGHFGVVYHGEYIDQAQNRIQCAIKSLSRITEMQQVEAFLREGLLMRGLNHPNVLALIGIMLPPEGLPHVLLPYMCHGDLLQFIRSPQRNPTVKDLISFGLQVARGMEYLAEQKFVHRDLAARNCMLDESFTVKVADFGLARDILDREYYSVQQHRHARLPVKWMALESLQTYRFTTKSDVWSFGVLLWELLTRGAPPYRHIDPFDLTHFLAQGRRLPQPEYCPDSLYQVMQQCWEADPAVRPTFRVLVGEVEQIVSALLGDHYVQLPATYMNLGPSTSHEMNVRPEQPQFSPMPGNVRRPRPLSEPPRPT
Procedure: as §1

SAPK2b(h) = target: T28, SAPK2b(h) (Homo sapiens, UniProt Q15759)
T28 construct: purchased Eurofins (KinaseProfiler)
T28 sequence (Q15759 whole entry): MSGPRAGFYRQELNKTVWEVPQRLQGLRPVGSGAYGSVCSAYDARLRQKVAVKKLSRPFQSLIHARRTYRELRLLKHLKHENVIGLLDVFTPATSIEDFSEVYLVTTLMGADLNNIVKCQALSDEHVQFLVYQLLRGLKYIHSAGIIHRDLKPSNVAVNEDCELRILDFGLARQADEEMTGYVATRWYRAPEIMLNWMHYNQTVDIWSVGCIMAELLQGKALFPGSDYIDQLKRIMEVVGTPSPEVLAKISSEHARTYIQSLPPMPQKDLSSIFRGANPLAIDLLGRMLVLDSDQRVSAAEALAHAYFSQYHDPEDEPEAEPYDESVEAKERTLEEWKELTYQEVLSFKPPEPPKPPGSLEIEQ
Procedure: as §1

TBK1(h) = target: T29, TBK1(h) (Homo sapiens, UniProt Q9UHD2)
T29 construct: purchased Eurofins (KinaseProfiler)
T29 sequence (Q9UHD2 whole entry): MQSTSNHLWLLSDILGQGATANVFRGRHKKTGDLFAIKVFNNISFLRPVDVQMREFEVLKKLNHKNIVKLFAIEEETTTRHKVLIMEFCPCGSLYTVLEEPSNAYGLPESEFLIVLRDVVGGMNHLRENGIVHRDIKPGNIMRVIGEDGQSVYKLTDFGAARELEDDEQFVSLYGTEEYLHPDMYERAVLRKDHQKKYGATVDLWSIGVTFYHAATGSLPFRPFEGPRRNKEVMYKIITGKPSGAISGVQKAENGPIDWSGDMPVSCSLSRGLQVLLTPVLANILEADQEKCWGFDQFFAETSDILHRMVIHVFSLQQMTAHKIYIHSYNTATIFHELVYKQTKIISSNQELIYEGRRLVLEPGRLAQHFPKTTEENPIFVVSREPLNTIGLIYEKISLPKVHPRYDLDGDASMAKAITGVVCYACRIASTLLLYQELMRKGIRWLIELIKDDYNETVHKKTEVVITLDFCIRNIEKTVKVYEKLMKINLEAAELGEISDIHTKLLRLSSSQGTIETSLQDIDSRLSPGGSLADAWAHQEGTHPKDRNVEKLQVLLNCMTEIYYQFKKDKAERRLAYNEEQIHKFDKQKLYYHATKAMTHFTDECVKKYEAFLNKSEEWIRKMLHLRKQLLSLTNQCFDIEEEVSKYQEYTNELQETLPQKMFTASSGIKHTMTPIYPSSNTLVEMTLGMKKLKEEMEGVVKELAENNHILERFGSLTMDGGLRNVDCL
Procedure: as §1

TLK1(h) = target: T30, TLK1(h) (Homo sapiens, UniProt Q9UKI8)
T30 construct: purchased Eurofins (KinaseProfiler)
Procedure: as §1

TSSK2(h) = target: T31, TSSK2(h) (Homo sapiens, UniProt Q96PF2)
T31 construct: purchased Eurofins (KinaseProfiler)
T31 sequence (Q96PF2 whole entry): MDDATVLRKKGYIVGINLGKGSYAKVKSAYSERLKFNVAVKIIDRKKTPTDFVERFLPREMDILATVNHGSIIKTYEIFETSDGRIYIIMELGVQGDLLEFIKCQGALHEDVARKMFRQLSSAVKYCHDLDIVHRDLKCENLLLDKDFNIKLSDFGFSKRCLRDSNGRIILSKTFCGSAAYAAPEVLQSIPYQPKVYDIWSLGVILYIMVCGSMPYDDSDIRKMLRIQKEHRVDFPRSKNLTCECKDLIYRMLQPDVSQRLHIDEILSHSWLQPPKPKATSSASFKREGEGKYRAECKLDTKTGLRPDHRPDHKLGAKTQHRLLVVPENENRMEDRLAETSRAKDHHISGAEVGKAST
Procedure: as §1

Txk(h) = target: T32, Txk(h) (Homo sapiens, UniProt P42681)
T32 construct: purchased Eurofins (KinaseProfiler)
Procedure: as §1

ULK2(h) = target: T33, ULK2(h) (Homo sapiens, UniProt Q8IYT8)
T33 construct: purchased Eurofins (KinaseProfiler)
T33 sequence (Q8IYT8 whole entry): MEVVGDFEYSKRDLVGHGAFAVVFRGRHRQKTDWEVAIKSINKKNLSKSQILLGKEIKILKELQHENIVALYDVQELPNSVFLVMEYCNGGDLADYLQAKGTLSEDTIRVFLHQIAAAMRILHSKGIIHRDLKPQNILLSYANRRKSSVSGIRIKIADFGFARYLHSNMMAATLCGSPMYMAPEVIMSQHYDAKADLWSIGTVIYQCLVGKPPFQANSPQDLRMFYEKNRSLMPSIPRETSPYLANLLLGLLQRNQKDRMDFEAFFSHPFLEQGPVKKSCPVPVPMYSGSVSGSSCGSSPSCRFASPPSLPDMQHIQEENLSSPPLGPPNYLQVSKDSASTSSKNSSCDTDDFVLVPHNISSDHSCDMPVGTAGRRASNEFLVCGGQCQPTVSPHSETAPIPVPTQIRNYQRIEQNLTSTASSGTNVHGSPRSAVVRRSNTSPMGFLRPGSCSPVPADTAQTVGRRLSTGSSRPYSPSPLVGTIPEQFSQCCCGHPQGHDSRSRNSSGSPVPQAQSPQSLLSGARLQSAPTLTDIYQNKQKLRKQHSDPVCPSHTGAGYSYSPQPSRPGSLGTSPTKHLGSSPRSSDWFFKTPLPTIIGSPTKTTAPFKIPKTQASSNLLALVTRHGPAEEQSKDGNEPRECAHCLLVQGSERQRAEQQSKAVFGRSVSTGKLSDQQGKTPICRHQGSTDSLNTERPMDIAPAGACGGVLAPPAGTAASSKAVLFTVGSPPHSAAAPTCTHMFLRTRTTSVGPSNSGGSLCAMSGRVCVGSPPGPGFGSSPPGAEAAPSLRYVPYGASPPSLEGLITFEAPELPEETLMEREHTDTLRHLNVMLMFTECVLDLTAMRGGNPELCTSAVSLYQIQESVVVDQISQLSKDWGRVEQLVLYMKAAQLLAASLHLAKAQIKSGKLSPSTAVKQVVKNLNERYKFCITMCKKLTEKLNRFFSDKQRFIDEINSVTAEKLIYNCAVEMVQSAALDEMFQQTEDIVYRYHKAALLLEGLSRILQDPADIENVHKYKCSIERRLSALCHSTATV
Procedure: as §1

WNK2(h) = target: T34, WNK2(h) (Homo sapiens, UniProt Q9Y3S1)
T34 construct: purchased Eurofins (KinaseProfiler)
Procedure: as §1

Wee1B(h) = target: T35, Wee1B(h) (Homo sapiens, UniProt P0C1S8)
T35 construct: purchased Eurofins (KinaseProfiler)
Procedure: as §1

ZIPK(h) = target: T36, ZIPK(h) (Homo sapiens, UniProt O43293)
T36 construct: purchased Eurofins (KinaseProfiler)
Procedure: as §1

eEF-2K(h) = target: T37, eEF-2K(h) (Homo sapiens, UniProt O00418)
T37 construct: purchased Eurofins (KinaseProfiler)
Procedure: as §1

## Cc1cc(/C=C/C#N)cc(C)c1Nc1ccnc(Nc2ccc(C#N)cc2)n1 [rilpivirine, (E)-4-((4-((4-(2-cyanoethenyl)-2,6-dimethylphenyl)amino)pyrimidin-2-yl)amino)benzonitrile]
ACTR2(h)
  remaining activity at 1 µM: 91%
CDK13/cyclinK(h)
  remaining activity at 1 µM: 82%
CDKL2(h)
  remaining activity at 1 µM: 100%
CK1γ1(h)
  remaining activity at 1 µM: 80%
ChaK1(h)
  remaining activity at 1 µM: 94%
DMPK(h)
  remaining activity at 1 µM: 100%
DRAK2(h)
  remaining activity at 1 µM: 107%
FGFR3(h)
  remaining activity at 1 µM: 98%
Fer(h)
  remaining activity at 1 µM: 91%
GRK1(h)
  remaining activity at 1 µM: 103%
HIPK3(h)
  remaining activity at 1 µM: 92%
IKKα(h)
  remaining activity at 1 µM: 85%
IRAK4(h)
  remaining activity at 1 µM: 80%
LATS1(h)
  remaining activity at 1 µM: 86%
MAP4K5(h)
  remaining activity at 1 µM: 34%
MKK6(h)
  remaining activity at 1 µM: 94%
MOK(h)
  remaining activity at 1 µM: 92%
MRCKβ(h)
  remaining activity at 1 µM: 87%
MST3(h)
  remaining activity at 1 µM: 93%
NEK3(h)
  remaining activity at 1 µM: 91%
NUAK2(h)
  remaining activity at 1 µM: 101%
PDHK4(h)
  remaining activity at 1 µM: 94%
PDK1(h)
  remaining activity at 1 µM: 85%
PI3KC2g(h)
  remaining activity at 1 µM: 82%
PIP4K2a(h)
  remaining activity at 1 µM: 103%
PKBβ(h)
  remaining activity at 1 µM: 90%
Plk4(h)
  remaining activity at 1 µM: 85%
Ret (V804L)(h)
  remaining activity at 1 µM: 91%
Ron(h)
  remaining activity at 1 µM: 85%
SAPK2b(h)
  remaining activity at 1 µM: 98%
TBK1(h)
  remaining activity at 1 µM: 72%
TLK1(h)
  remaining activity at 1 µM: 95%
TSSK2(h)
  remaining activity at 1 µM: 91%
Txk(h)
  remaining activity at 1 µM: 79%
ULK2(h)
  remaining activity at 1 µM: 90%
WNK2(h)
  remaining activity at 1 µM: 80%
Wee1B(h)
  remaining activity at 1 µM: 94%
ZIPK(h)
  remaining activity at 1 µM: 85%
eEF-2K(h)
  remaining activity at 1 µM: 92%
